Experimental data from the supplement of paper PMC13380429.
± gives the standard deviation of the averaged measurements.

Legend:
Conditions in all cases: 72 h
Vero E6 [1] = test: cell viability relative to DMSO; higher = less toxic
HepG2 [2] = test: as above
U2OS [3] = test: as above
Caco-2 [4] = test: as above
Calu-3 [5] = test: as above
Vero E6 [6] = test: relative viability EC50 (midpoint between 100% and the lowest measured viability); higher = less toxic
HepG2 [7] = test: as above
U2OS [8] = test: as above
Caco-2 [9] = test: as above
Calu-3 [10] = test: as above
Vero E6 [11] = test: drug sensitivity score (DSS) for viability; higher = more toxic; extreme values may be limits of the assay
HepG2 [12] = test: as above
U2OS [13] = test: as above
Caco-2 [14] = test: as above
Calu-3 [15] = test: as above

Row | SMILES | cell viability (Vero E6 [1]; 1 nM) [%] | cell viability (Vero E6 [1]; 10 nM) [%] | cell viability (Vero E6 [1]; 100 nM) [%] | cell viability (Vero E6 [1]; 1000 nM) [%] | cell viability (Vero E6 [1]; 10000 nM) [%] | cell viability (HepG2 [2]; 1 nM) [%] | cell viability (HepG2 [2]; 10 nM) [%] | cell viability (HepG2 [2]; 100 nM) [%] | cell viability (HepG2 [2]; 1000 nM) [%] | cell viability (HepG2 [2]; 10000 nM) [%] | cell viability (U2OS [3]; 1 nM) [%] | cell viability (U2OS [3]; 10 nM) [%] | cell viability (U2OS [3]; 100 nM) [%] | cell viability (U2OS [3]; 1000 nM) [%] | cell viability (U2OS [3]; 10000 nM) [%] | cell viability (Caco-2 [4]; 1 nM) [%] | cell viability (Caco-2 [4]; 10 nM) [%] | cell viability (Caco-2 [4]; 100 nM) [%] | cell viability (Caco-2 [4]; 1000 nM) [%] | cell viability (Caco-2 [4]; 10000 nM) [%] | cell viability (Calu-3 [5]; 1 nM) [%] | cell viability (Calu-3 [5]; 10 nM) [%] | cell viability (Calu-3 [5]; 100 nM) [%] | cell viability (Calu-3 [5]; 1000 nM) [%] | cell viability (Calu-3 [5]; 10000 nM) [%] | relative viability EC50 (Vero E6 [6]) [µM] | relative viability EC50 (HepG2 [7]) [µM] | relative viability EC50 (U2OS [8]) [µM] | relative viability EC50 (Caco-2 [9]) [µM] | relative viability EC50 (Calu-3 [10]) [µM] | drug sensitivity score (Vero E6 [11]) | drug sensitivity score (HepG2 [12]) | drug sensitivity score (U2OS [13]) | drug sensitivity score (Caco-2 [14]) | drug sensitivity score (Calu-3 [15])
1 | C[C@@H]1C[C@H]2[C@@H]3CCC4=CC(=O)C=C[C@]4(C)[C@@]3(F)[C@@H](O)C[C@]2(C)[C@H]1C(=O)CO [desoximetasone] | 93 | 91.3 | 93.2 | 88.5 | 99 | 102 | 95.7 | 102 | 91.3 | 109 | 98.3 | 97.2 | 91.9 | 92.9 | 101 | 94.1 | 90.1 | 88 | 95.2 | 105 | 86.2 | 95 | 101 | 101 | 88.8 | > 10 | > 10 | > 10 | > 10 | > 10 | 0 | 0 | 0 | 0 | 0
2 | C/C=C(/C(=C/C)c1ccc(O)cc1)c1ccc(O)cc1 [dienestrol] | 101 | 107 | 101 | 104 | 94.3 | 101 | 100 | 98.4 | 110 | 95.3 | 106 | 108 | 107 | 99.9 | 109 | 112 | 96.5 | 105 | 106 | 102 | 98.1 | 91.4 | 92.4 | 84 | 95.7 | > 10 | > 10 | > 10 | > 10 | > 10 | 0 | 0 | 0 | 0 | 0
3 | NCCS(=O)(=O)O [taurine] | 94.5 | 95.3 | 95.1 | 89.1 | 106 | 110 | 99.4 | 101 | 102 | 104 | 94.4 | 100 | 98.9 | 103 | 101 | 94.9 | 99.3 | 98 | 95.6 | 103 | 100 | 106 | 102 | 97.6 | 101 | > 10 | > 10 | > 10 | > 10 | > 10 | 0 | 0 | 0 | 0 | 0
4 | CN1C(=O)CN=C(c2ccccc2)c2cc(Cl)ccc21 [diazepam] | 97.8 | 100 | 101 | 98.6 | 86.7 | 94.8 | 105 | 101 | 100 | 101 | 107 | 102 | 107 | 99.6 | 103 | 104 | 101 | 85.6 | 87.6 | 96 | 110 | 92.4 | 96.6 | 98 | 110 | > 10 | > 10 | > 10 | > 10 | > 10 | 0.2 | 0 | 0 | 2.2 | 0
5 | CCCCCCC(=O)OC1CC(C)(C)NC(C)(C)C1 [TMPH] | 99 | 96.4 | 101 | 95.2 | 98.4 | 109 | 93.5 | 99.5 | 92.9 | 106 | 99.7 | 101 | 98.9 | 99.6 | 99.1 | 106 | 99.4 | 99.3 | 103 | 102 | 102 | 89.7 | 96 | 108 | 98.7 | > 10 | > 10 | > 10 | > 10 | > 10 | 0 | 0 | 0 | 0 | 0
6 | CCCC(C)C1(CC)C(=O)NC(=S)NC1=O (stereo not given) [thiopental] | 96.2 | 95.2 | 94 | 95.7 | 95.1 | 102 | 100 | 101 | 90.5 | 89.5 | 100 | 98.2 | 99.9 | 101 | 97.5 | 100 | 100 | 104 | 96.4 | 91 | 99.6 | 98.6 | 93.3 | 102 | 98.8 | > 10 | > 10 | > 10 | > 10 | > 10 | 0 | 0.1 | 0 | 0 | 0
7 | CCn1c2ccccc2c2cc(CNCc3ccccc3OC)ccc21 [HLCL-61] | 91.3 | 93.2 | 88.2 | 88.8 | 93.5 | 106 | 95.4 | 93.5 | 95.6 | 79.2 | 100 | 96.6 | 99.2 | 102 | 94.9 | 103 | 92 | 94.6 | 107 | 101 | 111 | 99.5 | 95.7 | 106 | 87.9 | > 10 | > 10 | > 10 | > 10 | > 10 | 0.1 | 1.1 | 0 | 0 | 0
8 | O=C(O)CC(S)C(=O)O (stereo not given) [mercaptosuccinic-acid] | 96.1 | 99.8 | 96.8 | 97.4 | 99.3 | 93.1 | 93.7 | 94.9 | 96.3 | 92.7 | 103 | 104 | 94.3 | 102 | 96.2 | 94 | 106 | 91.2 | 95.7 | 99.7 | 102 | 101 | 93.5 | 94.7 | 97.7 | > 10 | > 10 | > 10 | > 10 | > 10 | 0 | 0 | 0 | 0 | 0
9 | CCN(CC)CC1CCCCN1CC(=O)N1c2ccccc2C(=O)Nc2cccnc21 (stereo not given) [otenzepad] | 97.8 | 97 | 95.7 | 92.4 | 99.5 | 94.3 | 104 | 92.3 | 101 | 98.9 | 100 | 102 | 102 | 100 | 97.4 | 104 | 104 | 108 | 97.6 | 98.8 | 102 | 105 | 96 | 96.3 | 101 | > 10 | > 10 | > 10 | > 10 | > 10 | 0 | 0 | 0 | 0 | 0
10 | N=C(N)NCCC[C@H](N)C(=O)O [L-arginine] | 97.2 | 99.2 | 102 | 103 | 102 | 95.3 | 96.5 | 95.5 | 96 | 89.4 | 105 | 94.9 | 99.6 | 94.6 | 101 | 97.6 | 114 | 96.9 | 107 | 98.9 | 104 | 95.7 | 104 | 99 | 99.3 | > 10 | > 10 | > 10 | > 10 | > 10 | 0 | 0 | 0 | 0 | 0
11 | NS(=O)(=O)c1cc(Cl)c(Cl)c(S(N)(=O)=O)c1 [diclofenamide] | 95.8 | 102 | 96 | 99.1 | 95.3 | 97.6 | 103 | 100 | 97 | 101 | 102 | 98 | 106 | 98.7 | 105 | 102 | 104 | 112 | 104 | 98.9 | 88.2 | 81.4 | 87.1 | 91 | 88.9 | > 10 | > 10 | > 10 | > 10 | > 10 | 0 | 0 | 0 | 0 | 0
12 | CC1(C)OC2(C)C(O)CC1CC2O (stereo not given) [epomediol] | 98.7 | 97 | 98 | 98.7 | 94 | 99.9 | 98.1 | 96.2 | 112 | 101 | 108 | 97.3 | 98.1 | 97.7 | 102 | 98.7 | 92.1 | 98.2 | 95 | 101 | 97.1 | 82.6 | 97.5 | 90.9 | 105 | > 10 | > 10 | > 10 | > 10 | > 10 | 0 | 0 | 0 | 0 | 0
13 | Nc1nc2[nH]cnc2c(=S)[nH]1 [thioguanine] | 96.6 | 103 | 92.3 | 97.5 | 19.2 | 88.1 | 99 | 86.2 | 84.1 | 19.2 | 104 | 98.5 | 94 | 67.4 | 25.1 | 101 | 90.1 | 94.6 | 76.2 | 43.4 | 99.6 | 103 | 95 | 94.8 | 80.5 | 2.94 | 1.75 | 1.16 | 1.19 | > 10 | 4.8 | 7.1 | 7.9 | 5.7 | 0.9
14 | O=C(Nc1ccc2c(O)cc(S(=O)(=O)O)cc2c1)Nc1ccc2c(O)cc(S(=O)(=O)O)cc2c1 [AMI-1] | 97.2 | 102 | 102 | 106 | 96 | 101 | 110 | 106 | 107 | 94.3 | 103 | 102 | 99 | 102 | 101 | 87 | 97.8 | 92.8 | 93.5 | 97.2 | 104 | 100 | 100 | 109 | 99.8 | > 10 | > 10 | > 10 | > 10 | > 10 | 0 | 0 | 0 | 0 | 0
15 | C[C@H](CCC(=O)O)[C@H]1CC[C@H]2[C@@H]3[C@@H](O)C[C@@H]4C[C@H](O)CC[C@]4(C)[C@H]3CC[C@]12C [ursodiol] | 97.3 ± 3.1 | 101 ± 5.3 | 100 ± 6.9 | 104 ± 2.4 | 103 ± 14 | 97.7 ± 6.4 | 107 ± 4.5 | 97.2 ± 8.1 | 108 ± 7.4 | 106 ± 4.2 | 104 | 94.3 | 96.2 | 93.2 | 108 | 106 ± 2.8 | 102 ± 3.9 | 98.4 ± 0.14 | 94.9 ± 5.4 | 85.8 ± 15 | 97 | 96.6 | 102 | 87.2 | 105 | > 10 | > 10 | > 10 | > 10 | > 10 | 0 | 0 | 0 | 0.95 ± 1.3 | 0
